Experimental data: ChEMBL document CHEMBL5321200, “Discovery of the GSH responsive "Y-PROTACs" targeting ALK and CDK4/6 as a potential treatment for cancer” (Eur J Med Chem, 2023)
The source made the active and inactive calls. No cut-off for these calls is given here.

Tests used:
NCI-H3122 [1] = experiment: Cell cycle arrest in human NCI-H3122 cells assessed as G2/M phase cells at 0.312 uM incubated for 24 hrs by propidium iodide staining based flow cytometric analysis (reference value: 20.89%); type: functional
NCI-H3122 [2] = experiment: Induction of apoptosis in human NCI-H3122 cells assessed as late apoptotic cells at 0.312 uM incubated for 48 hrs by Annexin V-FITC/propidium iodide staining based flow cytometric analysis (reference value: 3.06%); type: functional
[3] = target: T1, Protein cereblon/ALK tyrosine kinase receptor/Echinoderm microtubule-associated protein-like 4 (Homo sapiens) (UniProt Q9UM73+Q9HC35+Q96SW2); experiment: PROTAC activity at CRBN/EML4-ALK in human NCI-H3122 cells assessed as degradation of EML4-ALK fusion protein at 5 uM pretreated with MG132 for 4 hrs followed compound addition and measured after 24 hrs by Western blot analysis; type: cell-based
[4] = target: T2, Protein cereblon/Cyclin-dependent kinase 6 (Homo sapiens) (UniProt Q00534+Q96SW2); experiment: PROTAC activity at CRBN/CDK6 in human NCI-H2228 cells assessed as reduction in CDK6 protein level by Western blot analysis; type: cell-based
NCI-H3122 [5] = experiment: Cell cycle arrest in human NCI-H3122 cells assessed as accumulation of cells at S phase at 0.312 uM incubated for 24 hrs by propidium iodide staining based flow cytometric analysis (reference value: 29.94%); type: functional
[6] = target: T3, Protein cereblon/Cyclin-dependent kinase 4 (Homo sapiens, UniProt P11802+Q96SW2); experiment: PROTAC activity at CRBN/CDK4 in human NCI-H2228 cells assessed as reduction in CDK4 protein level by Western blot analysis; type: cell-based
[7] = target: Cyclin-dependent kinase 6 (Homo sapiens) (UniProt Q00534); experiment: Inhibition of CDK6 (unknown origin) at 0.05 uM by LANCE Ultra TR-FRET assay relative to control
NCI-H3122 [8] = experiment: Cell cycle arrest in human NCI-H3122 cells assessed as accumulation of cells at G0/G1 phase at 1.25 uM incubated for 24 hrs by propidium iodide staining based flow cytometric analysis (reference value: 48.68%); type: functional
[9] = Stability of the compound in PBS buffer incubated upto 24 hrs in the presence of GSH by LC-MS/MS analysis; type: physicochemical
NCI-H3122 [10] = experiment: Induction of apoptosis in human NCI-H3122 cells assessed as early apoptotic cells at 0.625 uM incubated for 48 hrs by Annexin V-FITC/propidium iodide staining based flow cytometric analysis (reference value: 0.71%); type: functional
[11] = Toxicity in BALB/c nude mouse xenografted with human NCI-H3122 cells assessed as effect on spleen function at 75 mg/kg, IG administered once daily for 18 days by H and E staining based assay; type: organism-based; details: in vivo, po, 432 h, time 18 day
[12] = target: T3, Protein cereblon/Cyclin-dependent kinase 4; experiment: PROTAC activity at CRBN/CDK4 in human NCI-H3122 cells assessed as increase in CDK4 protein level at 5 uM measured after 24 hrs by Western blot analysis; type: cell-based
NCI-H3122 [13] = experiment: Cell cycle arrest in human NCI-H3122 cells assessed as G2/M phase cells at 0.625 uM incubated for 24 hrs by propidium iodide staining based flow cytometric analysis (reference value: 20.89%); type: functional
[14] = target: T1, Protein cereblon/ALK tyrosine kinase receptor/Echinoderm microtubule-associated protein-like 4 (Homo sapiens); experiment: PROTAC activity at CRBN/EML4-ALK in human NCI-H3122 cells assessed as degradation of EML4-ALK fusion protein at 5 uM pretreated with pomalidomide for 4 hrs followed by compound addition and measured after 24 hrs by Western blot analysis; type: cell-based
[15] = target: ALK tyrosine kinase receptor (Homo sapiens) (UniProt Q9UM73); experiment: Inhibition of ALK (unknown origin) at 1 uM by LANCE Ultra TR-FRET assay relative to control
NCI-H3122 [16] = experiment: Inhibition of colony formation in human NCI-H3122 cells assessed as reduction in number of colonies measured after 10 days by crystal violet staining based microscopic analysis; type: functional, cell-based; details: dose 0.039-0.312 µM, time 10.0 day
NCI-H3122 [17] = experiment: Induction of apoptosis in human NCI-H3122 cells assessed as early apoptotic cells at 2.5 uM incubated for 48 hrs by Annexin V-FITC/propidium iodide staining based flow cytometric analysis (reference value: 0.71%); type: functional
[18] = Toxicity in BALB/c nude mouse xenografted with human NCI-H3122 cells assessed as effect on lung function at 75 mg/kg, IG administered once daily for 18 days by H and E staining based assay; type: organism-based; details: in vivo, po, 432 h, time 18 day
[19] = Toxicity in BALB/c nude mouse xenografted with human NCI-H3122 cells assessed as effect on visceral spleen morphology at 75 mg/kg, IG administered once daily for 18 days and measured after 12 hrs of last dose by H and E staining based analysis; type: organism-based; details: in vivo, po, 444 h
NCI-H1299 = experiment: Antiproliferative activity against human NCI-H1299 cells assessed as inhibition of cell growth incubated for 3 to 5 days by MTT assay; type: functional, cell-based
NCI-H3122 [20] = experiment: Induction of apoptosis in human NCI-H3122 cells assessed as viable cells at 2.5 uM incubated for 48 hrs by Annexin V-FITC/propidium iodide staining based flow cytometric analysis (reference value: 95.66%); type: functional; details: read-out: Activity
[21] = target: T2, Protein cereblon/Cyclin-dependent kinase 6 (Homo sapiens); experiment: PROTAC activity at CRBN/CDK6 in human NCI-H3122 cells assessed as reduction in CDK6 protein level at 1 to 10 uM incubated for 24 hrs by Western blot analysis; type: cell-based; details: dose 1-10 µM
[22] = target: T1, Protein cereblon/ALK tyrosine kinase receptor/Echinoderm microtubule-associated protein-like 4 (Homo sapiens); experiment: PROTAC activity at CRBN/EML4-ALK in human NCI-H3122 cells assessed as downregulation of phosphorylated STAT3 level by Western blot analysis; type: cell-based
NCI-H3122 [23] = experiment: Induction of apoptosis in human NCI-H3122 cells assessed as viable cells at 1.25 uM incubated for 48 hrs by Annexin V-FITC/propidium iodide staining based flow cytometric analysis (reference value: 95.66%); type: functional; details: read-out: Activity
NCI-H3122 [24] = experiment: Cell cycle arrest in human NCI-H3122 cells assessed as G2/M phase cells at 1.25 uM incubated for 24 hrs by propidium iodide staining based flow cytometric analysis (reference value: 20.89%); type: functional
NCI-H3122 [25] = experiment: Cell cycle arrest in human NCI-H3122 cells assessed as G2/M phase cells at 2.5 uM incubated for 24 hrs by propidium iodide staining based flow cytometric analysis (reference value: 20.89%); type: functional
NCI-H3122 [26] = experiment: Antitumor activity against human NCI-H3122 cells xenografted in BALB/c nude mouse assessed as reduction in tumor volume at 75 mg/kg, IG administered once daily for 18 days and measured after 12 hrs of last dose; type: functional, organism-based; details: time 444.0 hrs
[27] = target: T3, Protein cereblon/Cyclin-dependent kinase 4; experiment: PROTAC activity at CRBN/CDK4 in human NCI-H3122 cells assessed as downregulation of phosphorylated Rb level by Western blot analysis; type: cell-based
[28] = Cytotoxicity against human L02 cells assessed as inhibition of cell growth pretreated with GSH followed by compound addition and incubated for 3 to 5 days by MTT assay; type: toxicity, cell-based
NCI-H3122 [29] = experiment: Cell cycle arrest in human NCI-H3122 cells assessed as accumulation of cells at S phase at 0.625 uM incubated for 24 hrs by propidium iodide staining based flow cytometric analysis (reference value: 29.94%); type: functional

T1 sequence (Q96SW2 whole entry partner, the tested form may be a part): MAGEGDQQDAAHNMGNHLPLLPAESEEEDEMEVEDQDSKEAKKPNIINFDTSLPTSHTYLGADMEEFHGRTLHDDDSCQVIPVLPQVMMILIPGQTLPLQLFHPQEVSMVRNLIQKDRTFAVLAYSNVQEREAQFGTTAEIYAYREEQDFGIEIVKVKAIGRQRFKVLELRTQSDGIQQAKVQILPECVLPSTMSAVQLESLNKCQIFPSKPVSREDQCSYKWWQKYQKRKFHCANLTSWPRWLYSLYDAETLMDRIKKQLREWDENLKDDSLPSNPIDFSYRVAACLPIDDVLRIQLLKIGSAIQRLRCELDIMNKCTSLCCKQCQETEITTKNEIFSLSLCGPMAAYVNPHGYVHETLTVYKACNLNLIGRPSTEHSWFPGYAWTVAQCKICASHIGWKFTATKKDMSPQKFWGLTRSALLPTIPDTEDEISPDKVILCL
T1 sequence (Q9HC35 whole entry partner, the tested form may be a part): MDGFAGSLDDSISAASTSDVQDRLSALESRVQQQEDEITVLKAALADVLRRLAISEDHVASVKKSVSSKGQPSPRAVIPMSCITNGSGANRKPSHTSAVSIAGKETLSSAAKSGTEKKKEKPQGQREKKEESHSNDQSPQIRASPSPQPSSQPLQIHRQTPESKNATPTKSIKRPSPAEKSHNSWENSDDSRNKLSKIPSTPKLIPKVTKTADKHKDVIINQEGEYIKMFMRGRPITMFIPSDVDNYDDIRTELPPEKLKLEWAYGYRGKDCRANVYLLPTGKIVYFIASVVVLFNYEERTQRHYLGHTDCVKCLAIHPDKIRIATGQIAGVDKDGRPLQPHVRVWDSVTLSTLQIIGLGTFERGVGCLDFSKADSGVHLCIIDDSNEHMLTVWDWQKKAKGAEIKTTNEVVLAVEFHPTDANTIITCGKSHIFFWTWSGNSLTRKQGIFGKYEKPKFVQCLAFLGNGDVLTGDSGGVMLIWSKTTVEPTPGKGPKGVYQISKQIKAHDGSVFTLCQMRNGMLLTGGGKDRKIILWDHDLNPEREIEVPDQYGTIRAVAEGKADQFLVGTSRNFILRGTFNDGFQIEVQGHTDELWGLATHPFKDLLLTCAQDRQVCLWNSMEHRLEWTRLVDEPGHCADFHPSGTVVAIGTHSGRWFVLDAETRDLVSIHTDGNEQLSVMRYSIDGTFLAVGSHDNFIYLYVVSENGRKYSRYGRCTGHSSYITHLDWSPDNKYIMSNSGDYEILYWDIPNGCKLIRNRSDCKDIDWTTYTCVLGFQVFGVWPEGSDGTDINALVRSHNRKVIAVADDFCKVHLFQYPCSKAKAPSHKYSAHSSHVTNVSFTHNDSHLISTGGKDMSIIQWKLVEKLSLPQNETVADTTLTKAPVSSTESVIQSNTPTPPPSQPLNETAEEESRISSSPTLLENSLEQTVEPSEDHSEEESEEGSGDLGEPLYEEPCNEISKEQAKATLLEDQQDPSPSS
T1 sequence (Q9UM73 19-1620 limits assumed): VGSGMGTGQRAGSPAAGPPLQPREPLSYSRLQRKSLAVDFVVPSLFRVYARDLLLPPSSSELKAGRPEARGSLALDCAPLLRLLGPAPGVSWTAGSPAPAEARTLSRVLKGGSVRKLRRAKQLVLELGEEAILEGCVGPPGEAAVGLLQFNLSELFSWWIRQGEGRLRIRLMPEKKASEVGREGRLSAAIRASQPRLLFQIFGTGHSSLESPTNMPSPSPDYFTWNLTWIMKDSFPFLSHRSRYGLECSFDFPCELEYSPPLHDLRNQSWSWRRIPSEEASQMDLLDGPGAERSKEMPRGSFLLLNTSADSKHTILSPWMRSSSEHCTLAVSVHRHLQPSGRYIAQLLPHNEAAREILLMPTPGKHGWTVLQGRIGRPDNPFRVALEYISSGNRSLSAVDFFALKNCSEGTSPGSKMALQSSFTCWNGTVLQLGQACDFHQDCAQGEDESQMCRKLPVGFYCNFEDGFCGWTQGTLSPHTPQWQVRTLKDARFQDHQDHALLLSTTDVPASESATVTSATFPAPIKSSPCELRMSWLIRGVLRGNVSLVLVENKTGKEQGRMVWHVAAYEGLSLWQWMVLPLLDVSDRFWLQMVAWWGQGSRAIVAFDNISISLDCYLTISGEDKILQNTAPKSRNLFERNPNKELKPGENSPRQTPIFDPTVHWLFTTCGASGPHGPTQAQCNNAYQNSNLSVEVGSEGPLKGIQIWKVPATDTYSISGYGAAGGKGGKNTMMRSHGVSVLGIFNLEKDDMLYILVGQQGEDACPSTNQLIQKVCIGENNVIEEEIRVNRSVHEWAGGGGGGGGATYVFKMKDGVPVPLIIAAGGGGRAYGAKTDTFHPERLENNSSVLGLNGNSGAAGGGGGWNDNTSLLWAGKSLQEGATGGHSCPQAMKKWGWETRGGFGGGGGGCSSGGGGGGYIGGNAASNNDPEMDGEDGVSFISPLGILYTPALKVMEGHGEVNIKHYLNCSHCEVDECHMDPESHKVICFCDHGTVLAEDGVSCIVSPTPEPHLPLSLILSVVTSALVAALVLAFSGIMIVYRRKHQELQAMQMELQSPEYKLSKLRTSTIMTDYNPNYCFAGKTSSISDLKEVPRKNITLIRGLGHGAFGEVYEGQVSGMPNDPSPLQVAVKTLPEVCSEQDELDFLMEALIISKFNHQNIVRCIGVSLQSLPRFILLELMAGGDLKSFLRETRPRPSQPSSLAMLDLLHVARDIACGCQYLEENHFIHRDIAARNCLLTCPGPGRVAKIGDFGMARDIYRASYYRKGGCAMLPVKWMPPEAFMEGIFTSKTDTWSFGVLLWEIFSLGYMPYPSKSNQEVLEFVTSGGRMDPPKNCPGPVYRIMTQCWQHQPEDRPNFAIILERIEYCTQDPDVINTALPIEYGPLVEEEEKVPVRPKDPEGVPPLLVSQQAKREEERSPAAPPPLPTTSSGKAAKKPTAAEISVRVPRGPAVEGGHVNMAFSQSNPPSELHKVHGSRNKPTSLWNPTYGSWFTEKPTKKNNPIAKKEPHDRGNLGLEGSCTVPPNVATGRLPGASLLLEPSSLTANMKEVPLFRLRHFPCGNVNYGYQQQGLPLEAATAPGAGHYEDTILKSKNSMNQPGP
T3 sequence (P11802 2-303 limits assumed): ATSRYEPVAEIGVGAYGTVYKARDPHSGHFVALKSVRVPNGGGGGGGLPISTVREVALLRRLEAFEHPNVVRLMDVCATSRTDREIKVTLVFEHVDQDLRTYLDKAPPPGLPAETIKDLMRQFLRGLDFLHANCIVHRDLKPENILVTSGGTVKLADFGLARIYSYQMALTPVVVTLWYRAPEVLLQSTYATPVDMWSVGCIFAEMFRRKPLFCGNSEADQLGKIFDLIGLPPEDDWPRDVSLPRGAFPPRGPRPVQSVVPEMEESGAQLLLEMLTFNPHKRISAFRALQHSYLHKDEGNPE
T3 sequence (Q96SW2 whole entry partner): as the sequence (Q96SW2 whole entry partner, the tested form may be a part) above
T2 sequence (Q00534 whole entry, looked up): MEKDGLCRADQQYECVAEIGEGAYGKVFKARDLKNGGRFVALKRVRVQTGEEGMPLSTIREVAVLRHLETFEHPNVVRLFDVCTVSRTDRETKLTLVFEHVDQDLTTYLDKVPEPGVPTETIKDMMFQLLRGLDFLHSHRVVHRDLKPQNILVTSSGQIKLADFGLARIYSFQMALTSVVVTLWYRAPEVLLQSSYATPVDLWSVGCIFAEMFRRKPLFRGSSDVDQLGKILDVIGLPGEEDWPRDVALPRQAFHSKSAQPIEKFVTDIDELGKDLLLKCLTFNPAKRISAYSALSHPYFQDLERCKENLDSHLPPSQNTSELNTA
T2 sequence (Q96SW2 whole entry, looked up): as the sequence (Q96SW2 whole entry partner, the tested form may be a part) above
Chain of Cyclin-dependent kinase 6 (Homo sapiens) (Q00534 whole entry): as the sequence (Q00534 whole entry, looked up) above
Chain of ALK tyrosine kinase receptor (Homo sapiens) (Q9UM73 19-1620 limits assumed): as the sequence (Q9UM73 19-1620 limits assumed) above

## CC(=O)c1c(C)c2cnc(Nc3ccc(N4CCN(CC(=O)NCCSSCCN(CC(=O)NCCNc5cccc6c5C(=O)N(C5CCC(=O)NC5=O)C6=O)C(=O)CCCCCCC(=O)N5CCC(c6cc(OC(C)C)c(Nc7ncc(Cl)c(Nc8ccccc8S(=O)(=O)C(C)C)n7)cc6C)CC5)CC4)cn3)nc2n(C2CCCC2)c1=O (stereo not given)
NCI-H3122 [1]
  Activity: 18.82%
NCI-H3122 [2]
  Activity: 5.85%
[3]
  Activity: inactive
[4]
  Activity: inactive
NCI-H3122 [5]
  Activity: 17.52%
[6]
  Activity: Active
[7]
  inhibition: 92%
NCI-H3122 [8]
  Activity: 72.25%
[9]
  Stability: Stable
NCI-H3122 [10]
  Activity: 0.88%
[11]
  Activity: Non-Toxic
[12]
  Activity: inactive
NCI-H3122 [13]
  Activity: 16.42%
[14]
  Activity: inactive
[15]
  inhibition: 96.4%
NCI-H3122 [16]
  inhibition: Dose-Dependent Effect
NCI-H3122 [17]
  Activity: 1.35%
[18]
  Activity: Non-Toxic
[19]
  Activity: Non-Toxic
NCI-H1299
  IC50: 21.2 µM
NCI-H3122 [20]
  viability at 2.5 µM: 81.8%
[21]
  Activity: inactive
[22]
  Activity: Active
NCI-H3122 [23]
  viability at 1.25 µM: 86.6%
NCI-H3122 [24]
  Activity: 16.61%
NCI-H3122 [25]
  Activity: 11.78%
NCI-H3122 [26]
  Activity: Active
[27]
  Activity: Active
[28]
  IC50: 12.7 µM
NCI-H3122 [29]
  Activity: 14.44%
